Test results published in patent publication US5916919A, “Retrovirus protease inhibitors” (priority 1997, dated 1999).
Values after ≈ are worked out from the molar mass of the structure shown. Where two headings read alike, the source gives them in different places.

Assays:
[1] = tested on: HSV; conditions: cited from earlier work
[2] = target: T1, HIV-1 protease (Human immunodeficiency virus type 1 group M subtype B, UniProt P04585); test: HPLC assay of proteolytic activity of recombinant HIV-1 protease (SQNYPIV substrate); type: biochemical; conditions: for anti-HIV-1 protease activity (in words): 17.9 μg/ml (tested concentration); for Inhibition (inhibitory activity of compounds against HIV-1 protease) / inhibition at 17.9 µg/mL: 17.9 μg/ml, HPLC assay; for inhibition at 17.9 µg/mL: read-out: Inhibition (inhibitory activity of compounds against HIV-1 protease)
T1 construct: Recombinant HIV-1 protease was prepared from the expression vector, PGEX-PR 107; made in house
Experimental: Recombinant HIV-1 protease was prepared from the expression vector, PGEX-PR 107, in E. coli DII5a and was purified according to the method established in Dr. Wan's laboratory.
The proteolytic activity of HIV-1 PR was measured by Dr. Wan's group at the Biochemistry Department using the synthetic heptapeptide Ser-Gln-Asn-Tyr-Pro-Ile-Val (SQNYPIV), corresponding to the p24-p17 cleavage site in the natural gag precursor, as substrate. The products of cleavage were analyzed by reversed-phase high-performance liquid chromatography (RP-HPLC, Ultrasphere ODS, 5μ, 4.6 mm×15 cm, Beckman, Calif., USA) with a 7-33% acetonitrile gradient in 0.1% trifluoroacetic acid (TFA). Product peak areas were integrated by a data system (Chromatopac C-R3A, Shimadzu, Japan) and compared with the standard peptide SQNY, which is expected to be generated from heptapeptide SQNYPIV after HIV-1 protease digestion. The extinction coefficient of the peptide SQNY was used to estimate the rate of proteolysis of the heptapeptide substrate. The assay was performed in a volume of 140 μl containing 90 pmole of substrate, 2 U of HIV-1 protease and compound solution in 0.1 M NaOAc buffer, pH 5.5, with 1 M (NH4)2 SO4, at 37° C. The reaction which proceeded for 2 h was terminated by the addition of 20 μl of aqueous 10% trifluoroacetic acid. The supernatant obtained by centrifuging at 12,000 rpm for 3 min was then analyzed by the hplc method. The unit of enzyme activity was defined as the amount of enzyme which yields 1 nmol of tetrapeptide SQNY under the above conditions in 1 min.
The proteolytic activity of HIV-1 protease inhibited by the compound was calculated as the activity of the control subtracting that of the sample, and then divided by itself.

[3] = tested on: HIV; conditions: cited from earlier work
[4] = tested on: HIV; conditions: cited from earlier work; remark: listed apart in the source
[5] = tested on: HIV; conditions: MT-4 cells; cited from earlier work
[6] = tested on: HIV; conditions: MT-4 cells, cited from earlier work
[7] = tested on: HIV-specific antigen expression; conditions: MT-4 cells; cited from earlier work
[8] = tested on: HIV-infected Molt-4 clone No. 8 cells; conditions: cited from earlier work
[9] = HIV positive, ARC and AIDS individuals; cited from earlier work
[10] = tested on: HIV; conditions: cited from earlier work; remark: listed apart in the source

O=Cc1cc(O)c(O)c(O)c1 [gallic aldehyde]
anti-HSV activity (in words) [1]: strong anti-HSV activity

C[C@@H]1CC[C@]2(C(=O)O)CC[C@]3(C)C(=CC[C@@H]4[C@@]5(C)C[C@@H](O)[C@@H](O)C(C)(C)[C@@H]5CC[C@]43C)[C@@H]2[C@]1(C)O [Compound 5, 2α,3α,19α-Trihydroxy-12-ursen-28-oic acid]
anti-HIV-1 protease activity (in words) [2]: did not show activity

C[C@@H]1CC[C@]2(C(=O)O)CC[C@]3(C)C(=CC[C@@H]4[C@@]5(C)C[C@@H](O)[C@H](O)C(C)(C)[C@@H]5CC[C@]43C)[C@@H]2[C@]1(C)O [Compound 6, 2α,3β,19α-Trihydroxy-12-ursen-28-oic acid]
Inhibition (inhibitory activity of compounds against HIV-1 protease) [2]: 49.47% | inhibition at 17.9 µg/mL [2]: 49%

C=C(C)[C@@H]1CC[C@]2(C(=O)O)CC[C@]3(C)[C@H](CC[C@@H]4[C@@]5(C)CC[C@H](O)C(C)(C)[C@@H]5CC[C@]43C)[C@@H]12 [betulinic acid]
inhibition of HIV replication (in words) [3]: potent inhibitors of HIV replication

CC(C)[C@@H]1CC[C@]2(C(=O)O)CC[C@]3(C)C(CCC4[C@@]5(C)CC[C@H](O)C(C)(C)C5CC[C@]43C)C12 (stereo partly shown) [dihydrobetulinic acid]
inhibition of HIV replication (in words) [3]: potent inhibitors of HIV replication

COc1ccc(-c2cc(=O)c3c(O)cc(O[C@@H]4O[C@H](CO)[C@H](O)[C@H](O)[C@H]4O)cc3o2)cc1 [acacetin-7-O-β-D-galactopyranoside]
EC50 [4]: 8 µM | IC50 [4]: 37 µM | anti-HIV activity (in words) [4]: significant anti-HIV activity | therapeutic index [4]: 5

geponin
anti-HSV activity (in words) [1]: strong anti-HSV activity

C[C@H]1[C@H](C)CC[C@]2(C(=O)O)CC[C@]3(C)C(=CC[C@@H]4[C@@]5(C)CC[C@H](O)C(C)(C)[C@@H]5CC[C@]43C)[C@H]12 [Compound 2, 3β-Hydroxy-12-ursen-28-oic acid]
Inhibition (inhibitory activity of compounds against HIV-1 protease) [2]: 85.07% | inhibition at 17.9 µg/mL [2]: 85%

CC1(C)[C@@H](O[C@H]2O[C@H](C(=O)O)[C@@H](O)[C@H](O)[C@H]2O[C@@H]2O[C@H](C(=O)O)[C@@H](O)[C@H](O)[C@H]2O)CC[C@]2(C)[C@H]3C(=O)C=C4[C@@H]5C[C@@](C)(C(=O)O)CC[C@]5(C)CC[C@@]4(C)[C@]3(C)CC[C@@H]12 [glycyrrhizin]
concentration at which cytopathic effect of HIV was inhibited [5]: 0.3 mM | concentration at which HIV-induced plaque formation was inhibited [6]: 0.6 mM | IC50 ([6]; read-out: 50% inhibitory dose, HIV-induced plaque formation): 150 µM | concentration at which HIV-specific antigen expression was inhibited [7]: 0.6 mM | inhibition of giant cell formation [8]: inhibited giant cell formation

Cc1cn([C@H]2C[C@H](N=[N+]=[N-])[C@@H](CO)O2)c(=O)[nH]c1=O [AZT, 3'-azido-3'-deoxythymidine]
toxicity [9]: frequently toxic, causing bone marrow suppression resulting in anemia leucopenia and thrombocytopenia

COc1c(O)cc2c(c1O)[C@@H]1O[C@H](CO)[C@@H](O)[C@H](O)[C@H]1OC2=O [bergenin]
anti-HIV activity (in words) ([10]; in vitro): moderate anti-HIV activity

CC1(C)CC[C@]2(C(=O)O)CC[C@]3(C)C(=CC[C@@H]4[C@@]5(C)C[C@@H](O)[C@H](O)C(C)(C)[C@@H]5CC[C@]43C)[C@@H]2C1 [Compound 4, 2α,3β-Dihydroxy-12-oleanen-28-oic acid]
anti-HIV-1 protease activity (in words) [2]: most active | inhibition at 17.9 µg/mL [2]: 100%

C[C@@H]1CC[C@]2(C(=O)O)CC[C@]3(C)C(=CC[C@@H]4[C@@]5(C)CC[C@@H](O)C(C)(C)[C@@H]5CC[C@]43C)[C@@H]2[C@]1(C)O [Compound 3, 3α,19α-Dihydroxy-12-ursen-28-oic acid]
Inhibition (inhibitory activity of compounds against HIV-1 protease) [2]: 42.18% | inhibition at 17.9 µg/mL [2]: 42%

O=C1O[C@@H]2[C@@H](O)[C@H](O)[C@@H](CO)O[C@H]2c2c1cc(O)c(O)c2O [norbergenin]
selectivity index ([10]; IC50/EC50 basis not stated): above 25 | EC50 ([10]; in vitro anti-HIV): 20 µg/mL (≈ 63.6 µM) | IC50 ([10]; in vitro): over 500 μg/ml | anti-HIV activity (in words) ([10]; in vitro): moderate anti-HIV activity

C[C@@H]1CC[C@]2(C(=O)O)CC[C@]3(C)C(=CC[C@@H]4[C@@]5(C)C[C@@H](O)C(=O)C(C)(C)[C@@H]5CC[C@]43C)[C@@H]2[C@]1(C)O [Compound 1, 2α,19α-Dihydroxy-3-oxo-12-ursen-28-oic acid]
Inhibition (inhibitory activity of compounds against HIV-1 protease) [2]: 72.19% | inhibition at 17.9 µg/mL [2]: 72%

CC(=O)[C@@H]1CC[C@]2(C(=O)O)CC[C@]3(C)[C@H](CC[C@@H]4[C@@]5(C)CC[C@H](O)C(C)(C)[C@@H]5CC[C@]43C)[C@@H]12 [platanic acid]
inhibition of HIV replication (in words) [3]: potent inhibitors of HIV replication
